Experimental data taken from US4772602A, “N-substituted 3,4-dihydropyrimidine derivatives as agents for treating disorders of cardiovascular system” (Suntory Limited, priority 1985, dated 1988).
Where two headings read alike, the source gives them in different places.

Legend:
vertebral artery = assay: vascular resistance of the vertebral artery in anesthetized dogs (ED30); type: in vivo, dog; conditions: Canis lupus familiaris, intravenous injection
Procedure: The pharmacological effect (ED30) of the compounds of the present invention with respect to the vascular resistance of the vertebral artery in anesthetized dogs was treated by the following procedure.
Adult dogs of either sex (7-14 kg in body weight) were anesthetized with at first thiopental sodium (35 mg/kg, intraperitoneal), anesthetized with urethane (400 mg/kg, intravenous) and chloralose (60 mg/kg, intravenous) and kept under artificial respiration throughout the experiment. After thoracotomy at the left first intercostal space, the vertebral artery was exposed and blood flow was measured with intracorporeal flow probe connected to an electromagnetic flowmeter (MF-27, Nihon Kohden).
At the same time, continuous measurement of the following parameters was made: systemic blood pressure (mean pressure) at the right femoral artery, the limb lead II ECG, the heart rate with a tachometer triggered by the R wave of ECG, and the vascular resistance determined by loading a electronic divider unit (EO-601 G, Nihon Kohden) with the mean values of blood pressure and vertebral artery blood flow. All of these parameters were recorded simultaneously on a polygraph (RM-600, Nihon Kohden).
All the test compounds were injected through a cannula inserted into the femoral vein.
The ED30 (μg/kg) values obtained by intravenous injection are listed in Table 4, wherein the Compound Numbers are keyed to the Example Numbers.

[1] = test system: isolated guinea pig hearts (coronary artery); assay: coronary vascular dilative effect in isolated guinea pig hearts (Langendorff's method); parameters: species or system guinea pig (Heartley); conditions: 37° C., 0.1 ml administered into the coronary artery
Procedure: The coronary vascular dilative effect of 3N-substituted 3,4-dihydropyrimidine derivatives was tested.
Heartley guinea pigs (weight 400-500 g) were killed by a blow on the head and their hearts were immediately isolated. The hearts were perfused with Krebs-Henseleit solution bubbled with a mixture of 95% O2 +5% CO2 and maintained at 37° C. at a constant rate of 6 ml/minute according to the Langendorff's method [J. Pharmacol. Methods 2, 143 (1979)]. The perfusion pressure was measured by a pressure transducer continuously. Samples were prepared by emulsifying 1 mg of a test compound in 1 ml of a mixture of dimethylsulfoxide and physiological saline solution (1:9) and diluting with physiological saline solution to the predetermined concentration. 0.1 ml of the diluted solution was administered into the coronary artery via a rubber tube connected to an aorta cannula to obtain ED50 (μg/heart) data as shown in Table 3. The numbers of the compounds in the Table correspond respectively to those of the working examples described above.

[2] = test system: conscious spontaneously hypertensive rats (SHR); assay: hypotensive action in conscious spontaneously hypertensive rats (SHR); type: in vivo, rat (SHR); conditions: 10 mg/kg orally
Procedure: A selected compound of the present invention was tested for its hypotensive action in conscious spontaneously hypertensive rats (SHR).
A group of 17 to 20-week old male SHR were anesthetized with ether and a cannula was inserted into the left femoral artery. At least one day after the operation, the cannula was connected to a pressure transducer and the blood pressure was measured continuously under conscious and unrestrained condition, thereby obtaining the data shown in Table 6. The test compound as clear solution dissolved in 10% ethanol was administered orally at a dose of 10 mg/kg (body weight) to each animal fasted overnight.

[3] = acute toxicity (LD50), Litchfield-Wilcoxon method; parameters: species or system mouse (male ddY); conditions: mouse, in vivo, emulsion in 10% dimethyl sulfoxide
Procedure: The acute toxicity (LD50) data of compound No. 28 of the present invention as administered to two groups of 5 or 6-week old male ddY mice were obtained by the Litchfield-Wilcoxon method. One group of mice was fasted overnight prior to oral administration. To each group of mice, the test compound was administered in the form of emulsion in 10% dimethyl sulfoxide.

Row | Structure (SMILES) | ED30 (vertebral artery) [mg/kg] | ED50 (coronary vascular dilative effect) [1] [μg/heart] | time of maximum blood pressure decrease [2] [h] | Blood pressure decrease, 6 hours ([2]; 6 hours) | Blood pressure decrease, maximum decrease ([2]; in 2 hrs) [%] | LD50 ([3]; male ddY mice fasted overnight, oral, read-out: LD50 oral) [mg/kg] | LD50 ([3]; male ddY mice, intravenous, read-out: LD50 intravenous) [mg/kg]
1 | CC1=NC(C)=C(C(=O)OCC2CC2)C(c2ccccc2[N+](=O)[O-])N1C(=O)OCCN(C)Cc1ccc(F)cc1 (stereo not drawn) [Compound 11] | 0.00055 | 0.030 | – | – | – | – | –
2 | CC1=NC(C)=C(C(=O)OCC2CC2)C(c2ccccc2[N+](=O)[O-])N1C(=O)OCCCCCN(C)Cc1ccccc1 (stereo not drawn) [Compound 9] | 0.0039 | 0.10 | – | – | – | – | –
3 | CC1=NC(C)=C(C(=O)OCC2CC2)C(c2ccccc2[N+](=O)[O-])N1C(=O)OCCN(C)Cc1ccccc1Cl (stereo not drawn) [Compound 6] | 0.0014 | 0.0092 | – | – | – | – | –
4 | COc1ccc(CN(C)CCOC(=O)N2C(C)=NC(C)=C(C(=O)OCC3CC3)C2c2ccccc2[N+](=O)[O-])cc1 (stereo not drawn) [Compound 5] | 0.0024 | 0.036 | – | – | – | – | –
5 | CC1=NC(C)=C(C(=O)OCC2CC2)C(c2ccccc2[N+](=O)[O-])N1C(=O)OCCN(CCCc1ccccc1)Cc1ccccc1 (stereo not drawn) [Compound 28, 3-[2-{N-benzyl-N-(3-phenylpropyl)amino}ethoxycarbonyl]-5-cyclopropylmethoxycarbonyl-2,6-dimethyl-4-(2-nitrophenyl)-3,4-dihydropyrimidine] | 0.0042 | – | 2 | 10-20% | 35 | > 1000 | 180 to 200
6 | CC1=NC(C)=C(C(=O)OCC2CC2)C(c2ccccc2[N+](=O)[O-])N1C(=O)OCCN(C)Cc1ccc([N+](=O)[O-])cc1 (stereo not drawn) [Compound 7] | 0.00071 | 0.0012 | – | – | – | – | –
7 | CC1=NC(C)=C(C(=O)OCC2CC2)C(c2ccccc2[N+](=O)[O-])N1C(=O)OCCN1CCc2ccccc2C1 (stereo not drawn) [Compound 21] | 0.002 | 0.45 | – | – | – | – | –
